Assay results: PubChem BioAssay (NCI)
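96-well plates; 48 h exposure; 5 concentrations. Endpoints by linear interpolation between flanking doses. Not reached: highest tested concentration assigned. GI50: concentration for 50% inhibition of growth. TGI denotes the concentration required for complete inhibition of growth.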

Experiments:
Test in all cases: DTP human tumour cell line panel, 48 h
786-0 renal = tested on: 786-0 renal
A498 renal = tested on: A498 renal
A549 NSCLC = tested on: A549 NSCLC
ACHN renal = tested on: ACHN renal
BT-549 breast = tested on: BT-549 breast
CAKI-1 renal = tested on: CAKI-1 renal
CCRF-CEM leukemia = tested on: CCRF-CEM leukemia
COLO 205 colon = tested on: COLO 205 colon
DU-145 prostate = tested on: DU-145 prostate
EKVX NSCLC = tested on: EKVX NSCLC
HCC-2998 colon = tested on: HCC-2998 colon
HCT-116 colon = tested on: HCT-116 colon
HCT-15 colon = tested on: HCT-15 colon
HL-60(TB) leukemia = tested on: HL-60(TB) leukemia
HOP-62 NSCLC = tested on: HOP-62 NSCLC
HOP-92 NSCLC = tested on: HOP-92 NSCLC
HS 578T breast = tested on: HS 578T breast
HT29 colon = tested on: HT29 colon
IGROV1 ovarian = tested on: IGROV1 ovarian
K-562 leukemia = tested on: K-562 leukemia
KM12 colon = tested on: KM12 colon
LOX IMVI melanoma = tested on: LOX IMVI melanoma
M14 melanoma = tested on: M14 melanoma
MALME-3M melanoma = tested on: MALME-3M melanoma
MCF7 breast = tested on: MCF7 breast
MDA-MB-231 breast = tested on: MDA-MB-231 breast
MDA-MB-435 = tested on: MDA-MB-435
MOLT-4 leukemia = tested on: MOLT-4 leukemia
NCI-H226 lung = tested on: NCI-H226 lung
NCI-H23 lung = tested on: NCI-H23 lung
NCI-H460 lung = tested on: NCI-H460 lung
NCI-H522 lung = tested on: NCI-H522 lung
NCI/ADR-RES ovarian = tested on: NCI/ADR-RES ovarian
OVCAR-3 ovarian = tested on: OVCAR-3 ovarian
OVCAR-4 ovarian = tested on: OVCAR-4 ovarian
OVCAR-5 ovarian = tested on: OVCAR-5 ovarian
OVCAR-8 ovarian = tested on: OVCAR-8 ovarian
PC-3 prostate = tested on: PC-3 prostate
RPMI-8226 leukemia = tested on: RPMI-8226 leukemia
RXF 393 renal = tested on: RXF 393 renal
SF-268 CNS = tested on: SF-268 CNS
SF-295 CNS = tested on: SF-295 CNS
SF-539 CNS = tested on: SF-539 CNS
SK-MEL-2 melanoma = tested on: SK-MEL-2 melanoma
SK-MEL-28 melanoma = tested on: SK-MEL-28 melanoma
SK-MEL-5 melanoma = tested on: SK-MEL-5 melanoma
SK-OV-3 ovarian = tested on: SK-OV-3 ovarian
SN12C renal = tested on: SN12C renal
SNB-19 CNS = tested on: SNB-19 CNS
SNB-75 CNS = tested on: SNB-75 CNS
SR leukemia = tested on: SR leukemia
SW-620 colon = tested on: SW-620 colon
T-47D breast = tested on: T-47D breast
TK-10 renal = tested on: TK-10 renal
U251 CNS = tested on: U251 CNS
UACC-257 melanoma = tested on: UACC-257 melanoma
UACC-62 melanoma = tested on: UACC-62 melanoma
UO-31 renal = tested on: UO-31 renal

CN1CCN(c2ccc(NC(=O)c3cncnc3Nc3ccc(OCc4ccccn4)c(Cl)c3)cc2)CC1
GI50 (786-0 renal): 0.763 µM
TGI (786-0 renal): 1.68 µM
GI50 (A498 renal): 1.48 µM
TGI (A498 renal): 6.98 µM
GI50 (A549 NSCLC): 2.22 µM
TGI (A549 NSCLC): 7.71 µM
GI50 (ACHN renal): 3.77 µM
TGI (ACHN renal): 7.87 µM
GI50 (BT-549 breast): 5.18 µM
TGI (BT-549 breast): 11.1 µM
GI50 (CAKI-1 renal): 4.78 µM
TGI (CAKI-1 renal): 11.7 µM
GI50 (CCRF-CEM leukemia): 1.86 µM
TGI (CCRF-CEM leukemia): 10.5 µM
GI50 (COLO 205 colon): 1.41 µM
TGI (COLO 205 colon): 6.19 µM
GI50 (DU-145 prostate): 4.28 µM
TGI (DU-145 prostate): 8.8 µM
GI50 (EKVX NSCLC): 6.25 µM
TGI (EKVX NSCLC): 14.6 µM
GI50 (HCC-2998 colon): 4.22 µM
TGI (HCC-2998 colon): 9.15 µM
GI50 (HCT-116 colon): 0.788 µM
TGI (HCT-116 colon): 1.91 µM
GI50 (HCT-15 colon): 0.961 µM
TGI (HCT-15 colon): 3.19 µM
GI50 (HL-60(TB) leukemia): 4.11 µM
TGI (HL-60(TB) leukemia): 9.28 µM
GI50 (HOP-62 NSCLC): 4.31 µM
TGI (HOP-62 NSCLC): 10.7 µM
GI50 (HOP-92 NSCLC): 3.11 µM
TGI (HOP-92 NSCLC): 9.28 µM
GI50 (HS 578T breast): 4.17 µM
TGI (HS 578T breast): 13.5 µM
GI50 (HT29 colon): 0.948 µM
TGI (HT29 colon): 4.49 µM
GI50 (IGROV1 ovarian): 3.13 µM
TGI (IGROV1 ovarian): 9.18 µM
GI50 (K-562 leukemia): 0.778 µM
TGI (K-562 leukemia): 2.28 µM
GI50 (KM12 colon): 4.16 µM
TGI (KM12 colon): 9.63 µM
GI50 (LOX IMVI melanoma): 3.39 µM
TGI (LOX IMVI melanoma): 8.46 µM
GI50 (M14 melanoma): 0.65 µM
TGI (M14 melanoma): 1.4 µM
GI50 (MALME-3M melanoma): 0.886 µM
TGI (MALME-3M melanoma): 3.69 µM
GI50 (MCF7 breast): 2.8 µM
TGI (MCF7 breast): 8.53 µM
GI50 (MDA-MB-231 breast): 2 µM
TGI (MDA-MB-231 breast): 6.56 µM
GI50 (MDA-MB-435): 0.605 µM
TGI (MDA-MB-435): 1.14 µM
GI50 (MOLT-4 leukemia): 1.64 µM
TGI (MOLT-4 leukemia): 9.42 µM
GI50 (NCI-H226 lung): 5.42 µM
TGI (NCI-H226 lung): 13 µM
GI50 (NCI-H23 lung): 5.07 µM
TGI (NCI-H23 lung): 11.5 µM
GI50 (NCI-H460 lung): 2.27 µM
TGI (NCI-H460 lung): 7.57 µM
GI50 (NCI-H522 lung): 4.48 µM
TGI (NCI-H522 lung): 10.4 µM
GI50 (NCI/ADR-RES ovarian): 6.28 µM
TGI (NCI/ADR-RES ovarian): 17.1 µM
GI50 (OVCAR-3 ovarian): 5.23 µM
TGI (OVCAR-3 ovarian): 13 µM
GI50 (OVCAR-4 ovarian): 4.69 µM
TGI (OVCAR-4 ovarian): 12.4 µM
GI50 (OVCAR-5 ovarian): 3.5 µM
TGI (OVCAR-5 ovarian): 9.11 µM
GI50 (OVCAR-8 ovarian): 5.4 µM
TGI (OVCAR-8 ovarian): 15.3 µM
GI50 (PC-3 prostate): 3.8 µM
TGI (PC-3 prostate): 12 µM
GI50 (RPMI-8226 leukemia): 1.33 µM
TGI (RPMI-8226 leukemia): 6.7 µM
GI50 (RXF 393 renal): 1.93 µM
TGI (RXF 393 renal): 6.71 µM
GI50 (SF-268 CNS): 5.03 µM
TGI (SF-268 CNS): 11.2 µM
GI50 (SF-295 CNS): 5.98 µM
TGI (SF-295 CNS): 13.1 µM
GI50 (SF-539 CNS): 1.09 µM
TGI (SF-539 CNS): 3.64 µM
GI50 (SK-MEL-2 melanoma): 4.74 µM
TGI (SK-MEL-2 melanoma): 11 µM
GI50 (SK-MEL-28 melanoma): 0.749 µM
TGI (SK-MEL-28 melanoma): 1.64 µM
GI50 (SK-MEL-5 melanoma): 1.77 µM
TGI (SK-MEL-5 melanoma): 6.01 µM
GI50 (SK-OV-3 ovarian): 4.79 µM
TGI (SK-OV-3 ovarian): 11.2 µM
GI50 (SN12C renal): 3.93 µM
TGI (SN12C renal): 8.72 µM
GI50 (SNB-19 CNS): 5.11 µM
TGI (SNB-19 CNS): 11.8 µM
GI50 (SNB-75 CNS): 4.58 µM
TGI (SNB-75 CNS): 9.23 µM
GI50 (SR leukemia): 0.742 µM
TGI (SR leukemia): 2.03 µM
GI50 (SW-620 colon): 1.14 µM
TGI (SW-620 colon): 4.63 µM
GI50 (T-47D breast): 1.98 µM
TGI (T-47D breast): 7.83 µM
GI50 (TK-10 renal): 6.78 µM
TGI (TK-10 renal): 15.3 µM
GI50 (U251 CNS): 2.64 µM
TGI (U251 CNS): 8.53 µM
GI50 (UACC-257 melanoma): 0.718 µM
TGI (UACC-257 melanoma): 1.61 µM
GI50 (UACC-62 melanoma): 0.695 µM
TGI (UACC-62 melanoma): 1.42 µM
GI50 (UO-31 renal): 3.89 µM
TGI (UO-31 renal): 9.97 µM
